Structures are written as SMILES. Where two headings read alike, the source gives them in different places.

Results on four molecules are retold here after publication PMC4032265 (PLoS ONE, 2014).

Assay [1] concerns the target T1, M2 muscarinic acetylcholine receptor (Homo sapiens, UniProt P08172).
T1 sequence (P08172 1-466): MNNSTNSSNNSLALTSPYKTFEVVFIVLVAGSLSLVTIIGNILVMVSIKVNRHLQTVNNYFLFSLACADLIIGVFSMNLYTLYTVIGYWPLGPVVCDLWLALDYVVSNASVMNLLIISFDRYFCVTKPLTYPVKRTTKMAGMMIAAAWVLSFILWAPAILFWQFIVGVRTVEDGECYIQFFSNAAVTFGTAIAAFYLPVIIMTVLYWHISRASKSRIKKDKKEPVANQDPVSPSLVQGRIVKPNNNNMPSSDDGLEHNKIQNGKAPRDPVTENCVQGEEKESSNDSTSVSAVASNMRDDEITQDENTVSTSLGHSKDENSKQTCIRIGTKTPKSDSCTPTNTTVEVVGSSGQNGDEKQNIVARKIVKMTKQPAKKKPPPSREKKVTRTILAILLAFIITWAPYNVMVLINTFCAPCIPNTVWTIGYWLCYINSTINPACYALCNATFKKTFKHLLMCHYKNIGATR
Briefly: PDSP radioligand binding, M2. The settings on record: read-out: % inhibition at 10 µM; single concentration 10 µM.

Assay [2] has as its target 5HT5A serotonergic receptor (Homo sapiens, UniProt P47898). As to the kind of experiment: PDSP radioligand binding, 5HT5A. The note with it: for inhibition at 10 µM: read-out: % inhibition at 10 µM, single concentration 10 µM.
Assay [3] deals with T2, α2B adrenergic receptor (Homo sapiens, UniProt P18089).
T2 sequence (P18089 1-450): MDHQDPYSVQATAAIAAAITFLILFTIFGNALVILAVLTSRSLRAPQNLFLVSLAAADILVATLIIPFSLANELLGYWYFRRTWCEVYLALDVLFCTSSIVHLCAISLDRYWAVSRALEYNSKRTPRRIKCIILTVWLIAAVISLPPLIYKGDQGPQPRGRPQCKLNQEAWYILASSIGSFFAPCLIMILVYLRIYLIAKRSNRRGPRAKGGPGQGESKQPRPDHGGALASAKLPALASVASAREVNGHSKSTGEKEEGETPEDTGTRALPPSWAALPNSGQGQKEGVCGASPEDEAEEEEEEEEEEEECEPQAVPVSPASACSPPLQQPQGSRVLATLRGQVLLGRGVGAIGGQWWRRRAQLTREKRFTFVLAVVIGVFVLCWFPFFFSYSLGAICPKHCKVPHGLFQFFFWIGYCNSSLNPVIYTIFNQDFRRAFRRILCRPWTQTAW
Briefly: PDSP radioligand binding, α2B. The settings on record: for Ki: full concentration-response curves, n = 3-6 unless noted; for inhibition at 10 µM: read-out: % inhibition at 10 µM, single concentration 10 µM.

Assay [4] deals with σ1 receptor (Cavia porcellus, UniProt Q60492). As to the kind of experiment: PDSP radioligand binding, σ1. The settings on record: read-out: % inhibition at 10 µM; single concentration 10 µM.
Assay [5] addresses µ opioid receptor (Homo sapiens, UniProt P35372). Briefly: PDSP radioligand binding, µ opioid. The note with it: read-out: % inhibition at 10 µM; single concentration 10 µM.
The target in assay [6] is D3 dopaminergic receptor (Homo sapiens, UniProt P35462). As to the kind of experiment: PDSP radioligand binding, D3. The note with it: read-out: % inhibition at 10 µM; single concentration 10 µM.
For assay [7], the target named is T3, σ2 receptor (Rattus norvegicus, UniProt Q5U3Y7).
T3 sequence (Q5U3Y7 1-176): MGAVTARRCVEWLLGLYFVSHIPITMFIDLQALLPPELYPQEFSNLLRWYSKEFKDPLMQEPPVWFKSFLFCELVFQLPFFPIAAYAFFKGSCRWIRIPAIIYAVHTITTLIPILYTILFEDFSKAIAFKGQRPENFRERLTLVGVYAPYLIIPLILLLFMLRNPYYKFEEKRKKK
Briefly: PDSP radioligand binding, σ2. The note with it: for inhibition at 10 µM: read-out: % inhibition at 10 µM, single concentration 10 µM.

The target in assay [8] is κ opioid receptor (Homo sapiens, UniProt P41145). As to the kind of experiment: PDSP radioligand binding, κ opioid. The note with it: read-out: % inhibition at 10 µM.
Assay [9] has as its target T4, M4 muscarinic acetylcholine receptor (Homo sapiens, UniProt P08173).
T4 sequence (P08173 1-479): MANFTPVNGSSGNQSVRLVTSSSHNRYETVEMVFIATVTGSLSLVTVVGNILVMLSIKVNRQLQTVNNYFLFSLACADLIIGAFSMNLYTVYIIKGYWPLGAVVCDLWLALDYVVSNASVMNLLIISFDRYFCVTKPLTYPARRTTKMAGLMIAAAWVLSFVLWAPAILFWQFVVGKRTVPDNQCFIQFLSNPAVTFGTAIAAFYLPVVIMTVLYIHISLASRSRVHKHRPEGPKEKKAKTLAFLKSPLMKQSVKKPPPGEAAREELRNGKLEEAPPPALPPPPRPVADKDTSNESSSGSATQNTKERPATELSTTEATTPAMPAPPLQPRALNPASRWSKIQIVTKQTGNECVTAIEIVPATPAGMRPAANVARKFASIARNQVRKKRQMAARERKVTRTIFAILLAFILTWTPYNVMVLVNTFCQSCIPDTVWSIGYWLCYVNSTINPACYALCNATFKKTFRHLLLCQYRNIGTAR
As to the kind of experiment: PDSP radioligand binding, M4. The note with it: read-out: % inhibition at 10 µM; single concentration 10 µM.

Assay [10] has as its target H3 histaminergic receptor (Homo sapiens, UniProt Q9Y5N1). As to the kind of experiment: PDSP radioligand binding, H3. The settings on record: read-out: % inhibition at 10 µM; single concentration 10 µM.
For assay [11], the target named is T5, 5HT1A serotonergic receptor (Homo sapiens, UniProt P08908).
T5 sequence (P08908 1-422): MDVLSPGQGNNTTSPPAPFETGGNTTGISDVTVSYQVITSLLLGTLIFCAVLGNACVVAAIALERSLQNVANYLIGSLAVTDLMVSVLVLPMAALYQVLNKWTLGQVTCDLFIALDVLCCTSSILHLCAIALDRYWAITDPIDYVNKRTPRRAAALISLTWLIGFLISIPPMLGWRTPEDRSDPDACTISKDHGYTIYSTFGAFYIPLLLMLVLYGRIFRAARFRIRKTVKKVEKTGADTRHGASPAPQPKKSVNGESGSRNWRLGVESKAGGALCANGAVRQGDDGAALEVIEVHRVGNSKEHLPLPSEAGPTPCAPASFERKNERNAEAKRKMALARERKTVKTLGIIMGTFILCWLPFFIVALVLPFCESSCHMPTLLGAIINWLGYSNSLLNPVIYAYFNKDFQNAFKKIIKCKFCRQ
As to the kind of experiment: PDSP radioligand binding, 5HT1A. The note with it: read-out: % inhibition at 10 µM; single concentration 10 µM.

In assay [12] the target is 5HT1D serotonergic receptor (Homo sapiens, UniProt P28221). Briefly: PDSP radioligand binding, 5HT1D. The settings on record: read-out: % inhibition at 10 µM; single concentration 10 µM.
The target of assay [13] is β3 adrenergic receptor (Homo sapiens, UniProt P13945). As to the kind of experiment: PDSP radioligand binding, β3. The settings on record: read-out: % inhibition at 10 µM; single concentration 10 µM.
For assay [14], the target named is β1 adrenergic receptor (Homo sapiens, UniProt P08588). Briefly: PDSP radioligand binding, β1. The settings on record: read-out: % inhibition at 10 µM; single concentration 10 µM.
Assay [15] addresses β2 adrenergic receptor (Homo sapiens, UniProt P07550). As to the kind of experiment: PDSP radioligand binding, β2. The note with it: read-out: % inhibition at 10 µM; single concentration 10 µM.

5HT1D serotonergic receptor, sequence (P28221 whole entry): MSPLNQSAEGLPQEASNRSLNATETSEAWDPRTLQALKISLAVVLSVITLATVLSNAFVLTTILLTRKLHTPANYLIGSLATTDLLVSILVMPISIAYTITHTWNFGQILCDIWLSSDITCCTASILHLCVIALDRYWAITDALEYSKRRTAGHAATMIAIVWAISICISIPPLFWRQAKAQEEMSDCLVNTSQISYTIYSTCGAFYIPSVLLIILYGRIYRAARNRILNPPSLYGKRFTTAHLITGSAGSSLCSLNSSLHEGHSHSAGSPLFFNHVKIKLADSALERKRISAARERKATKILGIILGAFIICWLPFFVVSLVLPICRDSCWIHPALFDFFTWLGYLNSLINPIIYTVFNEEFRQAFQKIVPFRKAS
β1 adrenergic receptor, sequence (P08588 whole entry, species assumed): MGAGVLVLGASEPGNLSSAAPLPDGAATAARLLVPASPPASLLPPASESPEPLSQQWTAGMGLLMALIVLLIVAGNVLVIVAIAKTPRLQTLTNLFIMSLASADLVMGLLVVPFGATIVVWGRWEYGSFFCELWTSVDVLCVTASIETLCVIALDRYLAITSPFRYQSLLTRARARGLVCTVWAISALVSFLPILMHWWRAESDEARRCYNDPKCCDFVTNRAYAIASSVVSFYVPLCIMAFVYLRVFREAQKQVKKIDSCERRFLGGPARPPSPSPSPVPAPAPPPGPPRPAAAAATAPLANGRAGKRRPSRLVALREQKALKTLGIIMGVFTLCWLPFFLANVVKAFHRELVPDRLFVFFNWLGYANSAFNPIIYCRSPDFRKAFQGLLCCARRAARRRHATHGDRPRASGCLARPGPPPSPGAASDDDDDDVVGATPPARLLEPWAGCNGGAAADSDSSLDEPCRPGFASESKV
β3 adrenergic receptor, sequence (P13945 whole entry): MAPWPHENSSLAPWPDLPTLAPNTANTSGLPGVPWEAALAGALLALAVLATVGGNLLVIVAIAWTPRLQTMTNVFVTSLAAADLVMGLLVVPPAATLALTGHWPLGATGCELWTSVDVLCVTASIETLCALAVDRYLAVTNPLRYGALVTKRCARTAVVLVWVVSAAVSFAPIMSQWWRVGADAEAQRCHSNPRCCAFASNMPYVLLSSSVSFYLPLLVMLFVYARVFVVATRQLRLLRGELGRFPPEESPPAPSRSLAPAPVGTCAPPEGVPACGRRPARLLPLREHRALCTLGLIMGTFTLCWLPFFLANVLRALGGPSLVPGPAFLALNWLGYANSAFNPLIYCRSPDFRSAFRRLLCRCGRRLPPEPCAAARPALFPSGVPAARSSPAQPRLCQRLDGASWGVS
µ opioid receptor, sequence (P35372 whole entry): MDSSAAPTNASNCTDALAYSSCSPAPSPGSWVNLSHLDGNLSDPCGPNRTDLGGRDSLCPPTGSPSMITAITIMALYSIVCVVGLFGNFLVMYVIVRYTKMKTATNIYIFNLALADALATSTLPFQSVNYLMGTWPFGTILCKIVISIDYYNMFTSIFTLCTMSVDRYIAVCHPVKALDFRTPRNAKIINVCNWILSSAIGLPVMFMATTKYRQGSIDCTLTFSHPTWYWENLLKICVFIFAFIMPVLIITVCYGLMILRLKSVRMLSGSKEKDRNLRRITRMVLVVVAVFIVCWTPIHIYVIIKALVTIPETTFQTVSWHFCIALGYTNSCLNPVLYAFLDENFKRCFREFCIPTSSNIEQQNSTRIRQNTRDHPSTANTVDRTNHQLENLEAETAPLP
D3 dopaminergic receptor, sequence (P35462 whole entry): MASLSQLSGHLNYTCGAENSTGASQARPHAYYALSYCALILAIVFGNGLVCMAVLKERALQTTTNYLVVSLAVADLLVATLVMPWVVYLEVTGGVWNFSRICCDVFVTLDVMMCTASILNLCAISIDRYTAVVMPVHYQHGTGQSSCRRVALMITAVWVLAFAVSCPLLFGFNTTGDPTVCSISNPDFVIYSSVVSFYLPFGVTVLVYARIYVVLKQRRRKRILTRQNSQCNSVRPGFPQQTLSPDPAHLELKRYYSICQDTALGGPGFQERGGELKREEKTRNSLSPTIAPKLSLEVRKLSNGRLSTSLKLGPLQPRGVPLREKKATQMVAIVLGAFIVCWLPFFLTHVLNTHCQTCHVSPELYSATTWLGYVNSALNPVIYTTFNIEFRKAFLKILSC
5HT5A serotonergic receptor, sequence (P47898 whole entry): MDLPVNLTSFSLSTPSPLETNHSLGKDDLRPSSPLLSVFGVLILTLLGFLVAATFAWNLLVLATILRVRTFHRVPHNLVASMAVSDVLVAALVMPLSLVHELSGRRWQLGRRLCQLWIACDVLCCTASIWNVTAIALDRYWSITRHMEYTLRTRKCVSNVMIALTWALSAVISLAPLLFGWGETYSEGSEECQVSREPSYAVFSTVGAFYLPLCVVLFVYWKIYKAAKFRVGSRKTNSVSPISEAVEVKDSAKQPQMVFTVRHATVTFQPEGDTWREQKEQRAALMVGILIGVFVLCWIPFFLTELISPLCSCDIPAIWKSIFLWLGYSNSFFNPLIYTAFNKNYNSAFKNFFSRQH
κ opioid receptor, sequence (P41145 whole entry): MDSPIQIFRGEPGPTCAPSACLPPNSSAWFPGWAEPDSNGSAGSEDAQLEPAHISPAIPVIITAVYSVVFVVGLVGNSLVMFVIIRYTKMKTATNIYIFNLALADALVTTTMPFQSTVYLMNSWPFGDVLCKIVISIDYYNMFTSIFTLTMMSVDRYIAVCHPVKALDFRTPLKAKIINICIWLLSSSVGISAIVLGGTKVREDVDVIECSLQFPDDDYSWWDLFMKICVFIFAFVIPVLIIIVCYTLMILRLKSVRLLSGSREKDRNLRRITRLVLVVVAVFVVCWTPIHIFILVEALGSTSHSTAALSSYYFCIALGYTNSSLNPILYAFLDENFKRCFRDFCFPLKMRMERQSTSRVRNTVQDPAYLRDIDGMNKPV
β2 adrenergic receptor, sequence (P07550 whole entry): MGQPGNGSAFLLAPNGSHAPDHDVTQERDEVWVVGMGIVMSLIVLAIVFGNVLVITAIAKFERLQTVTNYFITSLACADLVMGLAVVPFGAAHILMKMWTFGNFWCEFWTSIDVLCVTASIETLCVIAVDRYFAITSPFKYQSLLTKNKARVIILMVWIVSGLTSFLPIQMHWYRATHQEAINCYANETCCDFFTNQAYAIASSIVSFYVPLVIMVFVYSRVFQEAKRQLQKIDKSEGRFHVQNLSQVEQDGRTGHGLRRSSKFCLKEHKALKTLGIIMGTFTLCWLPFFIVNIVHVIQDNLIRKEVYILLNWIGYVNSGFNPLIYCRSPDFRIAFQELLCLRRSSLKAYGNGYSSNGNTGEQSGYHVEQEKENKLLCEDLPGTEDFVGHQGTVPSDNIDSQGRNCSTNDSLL
σ1 receptor, sequence (Q60492 whole entry): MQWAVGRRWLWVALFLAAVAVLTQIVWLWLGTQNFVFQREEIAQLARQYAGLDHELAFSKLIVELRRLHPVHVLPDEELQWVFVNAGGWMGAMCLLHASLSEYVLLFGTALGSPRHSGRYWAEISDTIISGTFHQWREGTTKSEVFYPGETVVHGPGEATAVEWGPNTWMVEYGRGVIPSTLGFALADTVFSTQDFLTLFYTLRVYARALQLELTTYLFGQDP
H3 histaminergic receptor, sequence (Q9Y5N1 whole entry): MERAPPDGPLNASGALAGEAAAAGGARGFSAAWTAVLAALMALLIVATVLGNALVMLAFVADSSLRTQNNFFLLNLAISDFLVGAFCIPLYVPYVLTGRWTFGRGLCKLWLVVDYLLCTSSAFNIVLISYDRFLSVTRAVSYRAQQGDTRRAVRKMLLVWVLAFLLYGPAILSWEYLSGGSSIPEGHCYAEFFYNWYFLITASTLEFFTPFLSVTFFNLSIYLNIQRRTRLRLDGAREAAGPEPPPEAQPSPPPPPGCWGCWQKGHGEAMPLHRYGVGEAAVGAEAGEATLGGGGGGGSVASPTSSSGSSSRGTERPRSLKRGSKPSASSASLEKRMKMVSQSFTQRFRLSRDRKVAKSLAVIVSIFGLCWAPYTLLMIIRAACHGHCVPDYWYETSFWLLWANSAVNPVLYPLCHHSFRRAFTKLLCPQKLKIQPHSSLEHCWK

A word on the inhibition: it is the drop in the measured response relative to a control, in per cent. For orientation: Ki means the equilibrium dissociation constant of an inhibitor or competing ligand from its target. On to `O[C@@H]1[C@H](O)[C@@H]2C[C@@H]2[C@H]1n1cnc2c(NCc3cccc(Cl)c3)ncnc21` [Compound 7], for which the inhibition at 10 µM is 15% in assay [1]; 16% in [2]; 42% in assay [3]; 29% in assay [4]; 1% in assay [5]; 4% in assay [6]. The inhibition at 10 µM is 66% in assay [7]; 4% in assay [8] (single concentration 10 µM); 4% in [9]; 0% in [10]; 28% in assay [11]; 4% in assay [12]. Moreover, the inhibition at 10 µM was 4% in assay [13], 0% in assay [14] and 53% in [15]. The Ki in assay [3] was 6340 ± 1470 nM; in assay [7] (full curves, n = 2) it was 2680 ± 470 nM.
`Fc1ccc(C#Cc2nc(NCc3cccc(Cl)c3)c3nc[nH]c3n2)cc1F` [Compound 8]: the inhibition at 10 µM was 6% in assay [1]; 11% in [2]; 63% in [3]; 0% in assay [4]; 15% in assay [5]; 23% in assay [6]. The inhibition at 10 µM in assay [7] is 14%; in assay [8] (single concentration 10 µM), 15%; in [9], 4%; in [10], 0%; in assay [11], 11%; in assay [12] it was 26%. In addition, the inhibition at 10 µM in [13] came out at 5%; in assay [14], 0%; in assay [15] it was 0%. In addition, affinity in [3] was put at a Ki of 1090 ± 140 nM.
Take `Clc1cccc(CNc2nc(Cl)nc3[nH]cnc23)c1` [Compound 9]: the inhibition at 10 µM in assay [1] came out at 9%; in [2], 38%; in assay [3], 95%; in assay [4], 0%; in assay [5], 0%; in assay [6] it was 6%. Also, the inhibition at 10 µM in assay [7] was 0%; in assay [8] (single concentration 10 µM), 0%; in [9] it was 0%; in assay [10] it was 3%; in assay [11], 12%; in [12], 14%. Moreover, the inhibition at 10 µM in assay [13] is 0%; in [14], 37%; in [15], 0%. Moreover, the Ki in assay [2] amounted to 4490 nM; in assay [3], 61 ± 20 nM.
As to `O[C@@H]1[C@H](O)[C@@H]2C[C@@H]2[C@H]1n1cnc2c(NC(C3CC3)C3CC3)nc(Cl)nc21` [Compound 10], the inhibition at 10 µM was found to be 15% in assay [1]; 0% in assay [2]; 15% in [3]; 9% in assay [4]; 0% in assay [5]; 8% in [6]. Further, the inhibition at 10 µM in assay [7] turned out to be 0%; in [8], 0%; in assay [9], 7%; in assay [10], 8%; in assay [11], 4%; in [12], 18%. The inhibition at 10 µM in [13] is 0%; in assay [14], 4%; in assay [15], 2%.
